Starred links: 1 amine or outer side, 2 acyl side, 3 side chain; linkers in the order of their positions; H or OH if unused. Non-standard residues stand in square brackets, D forms with d. Primed or numbered codes have the meaning given here. No end group written: not given here. *: point of attachment. γGlu = O=C(O)[C@H](CCC(=O)[*:2])N[*:1]; Palmitoyl = CCCCCCCCCCCCCCCC(=O)*; Myristoyl = CCCCCCCCCCCCCC(=O)*; Lauroyl = CCCCCCCCCCCC(=O)*; PEG12′ = not defined here
Columns and labels:
Chymotrypsin = assay: Inhibition of enzymatic degradation of a model GLP-1 (FRET substrate) by chymotrypsin; assay type: biochemical; conditions: for EC50: read-out: EC50 Chymotrypsin (0.001 mg/ml), 0.001 mg/ml chymotrypsin, 37° C., ± standard error if at least 3 measurements
From the text: (§1) The use of Förster resonance energy transfer (FRET), also known as fluorescence resonance energy transfer, substrates to monitor activity of proteolytic enzymes is known in the field (for example Anjuere, F. et al. (1993). Biochem J 291 (Pt 3), 869-73).
(§2) Model GLP-1 analogue was designed as FRET substrate by incorporation of 7-Methoxycoumarin-4-acetic acid (MCA) group as the donor chromophore and dinitrophenol group (DNP) as the acceptor chromophore.
(§3) An assay following the increase in fluorescence as a function of time was established in 96 well format using Varioskan Flash Multimode Meter (Thermo Scientific). Each well contained 70 μl of Dulbecco's phosphate buffer saline (Invitrogen catalogue #14190-094), 10 μl of 100 μM GLP-1 FRET substrate, 10 μl of N-terminally acylated peptide or oligopeptide of the invention in varying concentration and 10 μl of a stock solution of an enzyme (chymotrypsin, trypsin, elastase, etc.). The incubations were performed at 37° C. Fluorescence (320 nm excitation wavelength and 405 nm emission wavelength) was measured immediately after addition of the enzyme to the 96 well plate and also every minute for at least the next 30 minutes. The concentration of the enzyme was optimized to allow determination of slopes for the time course of initial fluorescence increase with and without the N-terminally acylated peptides or oligopeptides of the invention. The slopes were determined by linear regression of the linear part of the fluorescence trace (for example, the first 10 min of the reaction). Each assay was performed in duplicate and average of the two traces was included in the calculations. The relative effect of N-terminally acylated peptide or oligopeptides of the invention on enzymatic degradation of GLP-1 FRET substrate was obtained by comparison of the slopes achieved by the same concentration of the N-terminally acylated peptide or oligopeptides. […] This was done by plotting the slopes achieved with different concentrations of the N-terminally acylated peptide or oligopeptides of the invention as a function of their concentrations and fitting the experimental results using, for example, sigmoidal logistic regression (2 parameters, Sigma Plot v 11). Inhibition constants for the interaction between the N-terminally acylated peptide or oligopeptides of the invention and proteolytic enzymes were also obtained by performing the assay described above with varying concentrations of the inhibitor and substrate and analyzing the results, for example, by double reciprocal transformation as known to the person skilled in the art and described for example in Hubalek, F. et al., J. Med. Chem. 47, 1760-1766 (2004).
(§4) The EC50 was determined for the following compounds. EC50±standard error is reported if the results of at least 3 independent measurements were available.

Trypsin = assay: Inhibition of enzymatic degradation of a model GLP-1 (FRET substrate) by trypsin; assay type: biochemical; conditions: for EC50: read-out: EC50 Trypsin (0.001 mg/ml), 0.001 mg/ml trypsin, 37° C.
From the text: as §1, §2, §3, §4

[1] = compound 0.1 mM, buffer containing 8% DMSO

Substance	EC50 (Chymotrypsin) [µM]	EC50 (Trypsin) [µM]	also measured
N-dodecanoyl-Ala-Ala-Pro-His-OH (Lauroyl-AAPH-OH; SMILES CCCCCCCCCCCC(=O)N[C@@H](C)C(=O)N[C@@H](C)C(=O)N1CCC[C@H]1C(=O)N[C@@H](Cc1c[nH]cn1)C(=O)O) [Example 180]	> 500	–	–
N-dodecanoyl-Ala-Pro-Phe-OH [Example 35]	182	–	–
N-dodecanoyl-Gly-Ala-Pro-Tyr-OH [Example 37]	–	–	Slope of the initial increase in fluorescence obtained during incubation with 0.001 mg/ml Chymotrypsin (Chymotrypsin; [1]): 0.66; Slope of the initial increase in fluorescence obtained during incubation with 0.001 mg/ml Trypsin (Trypsin; [1]): 1.78
N-dodecanoyl-Ile-Ala-Ala-Pro-Tyr-OH [Example 40]	–	–	Slope of the initial increase in fluorescence obtained during incubation with 0.001 mg/ml Chymotrypsin (Chymotrypsin; [1]): 0.41; Slope of the initial increase in fluorescence obtained during incubation with 0.001 mg/ml Trypsin (Trypsin; [1]): 1.31
N-dodecanoyl-Lys-Ala-Ala-Pro-Tyr-OH [Example 44]	–	–	Slope of the initial increase in fluorescence obtained during incubation with 0.001 mg/ml Chymotrypsin (Chymotrypsin; [1]): 0.00; Slope of the initial increase in fluorescence obtained during incubation with 0.001 mg/ml Trypsin (Trypsin; [1]): 0.96
N-dodecanoyl-Thr-Ala-Ala-Pro-Phe-OH [Example 172]	132	401	–
N-dodecanoyl-βAla-βAla-Pro-Phe-Pro-OH [Example 6]	–	–	Slope of the initial increase in fluorescence obtained during incubation with 0.001 mg/ml Chymotrypsin (Chymotrypsin; compound 1 mM): 0.24; Slope of the initial increase in fluorescence obtained during incubation with 0.001 mg/ml Trypsin (Trypsin; compound 1 mM): 0.35
N-dodecanoyl-γGlu-Ala-Ala-Pro-Arg-Pro-OH [Example 27]	> 500	–	–
N-dodecanoyl-γGlu-His-Ala-Ala-Pro-Tyr-OH [Example 190]	> 500	–	–
N-tetradecanoyl-Glu-Ala-Ala-Pro-D-Phe-OH [Example 174]	211	–	–
N-tetradecanoyl-Glu-Ala-Pro-Phe-OH (Myristoyl-EAPF-OH; SMILES CCCCCCCCCCCCCC(=O)N[C@@H](CCC(=O)O)C(=O)N[C@@H](C)C(=O)N1CCC[C@H]1C(=O)N[C@@H](Cc1ccccc1)C(=O)O) [Example 152]	293	–	–
N-tetradecanoyl-γGlu-Ala-Pro-D-Phe-OH [Example 168]	377	–	–
N-tetradecanoyl-γGlu-Ala-Pro-Phe-OH [Example 181]	300	–	–
N-tetradecanoyl-γGlu-D-Ala-D-Pro-D-Phe-OH [Example 183]	386	–	–
N-tetradecanoyl-γGlu-γGlu-Ala-Pro-Phe-OH [Example 169]	287	–	–
N-tetradecanoyl-γGlu-γGlu-Phe-Phe-OH [Example 171]	452	–	–
N-tetradecanoyl-γGlu-γGlu-Pro-Phe-OH [Example 170]	> 500	–	–
PEG12-Ala-Ala-Pro-Phe-OH ([PEG12′]AAPF-OH) [Example 167]	> 500	–	–

Further lines, with some results ahead:

EC50 (Chymotrypsin) [µM]	EC50 (Trypsin) [µM]	Substance	also measured
57	187	N-dodecanoyl-Ala-Ala-Ala-Ala-Ala-Pro-Phe-OH [Example 141]	–
27	151	N-dodecanoyl-Leu-Thr-Trp-Pro-Tyr-OH [Example 154]	–
23 ± 2	> 500	N-hexadecanoyl-Ala-Ala-Pro-Phe-OH (Palmitoyl-AAPF-OH) [Example 29]	–
40	72	N-hexadecanoyl-Glu-Ala-Ala-Pro-D-Phe-OH [Example 144]	–
56	–	N-hexadecanoyl-Glu-Ala-Ala-Pro-D-Phe-OH [Example 186]	–
17	31	N-hexadecanoyl-Thr-Ala-Ala-Pro-Phe-OH [Example 175]	–
29 ± 4	66	N-hexadecanoyl-γGlu-Ala-Ala-Pro-Phe-OH [Example 32]	–
71	67	N-hexadecanoyl-γGlu-Ala-Ala-Pro-Phe-OH [Example 188]	–
48	57	N-hexadecanoyl-γGlu-Ala-Pro-Phe-OH (Palmitoyl-[γGlu]APF-OH; SMILES CCCCCCCCCCCCCCCC(=O)N[C@@H](CCC(=O)N[C@@H](C)C(=O)N1CCC[C@H]1C(=O)N[C@@H](Cc1ccccc1)C(=O)O)C(=O)O) [Example 149]	–
57	88	N-hexadecanoyl-γGlu-D-Ala-D-Ala-D-Pro-D-Phe-OH [Example 157]	–
